Assay results as given in the NIST ThermoML archive (doi:10.1021/je050399c).

Conditions: Fluid (supercritical or subcritical phases), Vibrating wire viscometry

N#N [nitrogen]
viscosity [mPa·s]
Conditions	298.15 K	323.15 K
100 kPa	0.01778	0.0189
150 kPa	0.01779	–
200 kPa	0.01781	–
200.1 kPa	–	0.01893
250 kPa	0.01782	–
300.1 kPa	0.01782	0.01895
350.1 kPa	0.01784	–
400 kPa	0.01784	–
400.1 kPa	–	0.01896
450.1 kPa	0.01784	–
500.1 kPa	0.01785	–
600.1 kPa	0.01786	0.01898
700.1 kPa	0.01787	–
800.1 kPa	0.01789	–
800.3 kPa	–	0.019
900.1 kPa	0.0179	–
1000.2 kPa	0.01792	–
1000.6 kPa	–	0.01903
1100.2 kPa	0.01793	–
1200.1 kPa	0.01795	–
1300.1 kPa	0.01796	–
1400.1 kPa	0.01797	–
1500.1 kPa	0.01798	–
1500.7 kPa	–	0.0191
1599.9 kPa	0.018	–
1700 kPa	0.01801	–
1800.1 kPa	0.01803	–
1899.9 kPa	0.01805	–
2000.4 kPa	0.01806	–
2000.7 kPa	–	0.01917
2250 kPa	0.0181	–
2500.3 kPa	0.01815	–
2750.4 kPa	0.01818	–
3000.9 kPa	0.01822	–
3250.3 kPa	0.01825	–
3500.7 kPa	0.01831	–
3750.7 kPa	0.01835	–
4001 kPa	0.01841	–
4250.5 kPa	0.01846	–
4499.8 kPa	0.01851	–
4749.9 kPa	0.01858	–
5000.5 kPa	0.01861	–
5500.9 kPa	0.01872	–
6005.4 kPa	0.01884	–
6500.4 kPa	0.01897	–
7002.5 kPa	0.01909	–
7501.6 kPa	0.01921	–
8000.9 kPa	0.01934	–
8500.9 kPa	0.01947	–
8999.3 kPa	0.01961	–
9499.4 kPa	0.01973	–
10001 kPa	0.01988	–
11005 kPa	0.02018	–
12002 kPa	0.02047	–
13004 kPa	0.02079	–
14004 kPa	0.0211	–
15006 kPa	0.02142	–
16001 kPa	0.02176	–
17010 kPa	0.02211	–
18008 kPa	0.02247	–
19006 kPa	0.02284	–
20005 kPa	0.02318	–
21000 kPa	0.02354	–
22001 kPa	0.02391	–
23008 kPa	0.02429	–
24003 kPa	0.02466	–
25014 kPa	0.02503	–
26005 kPa	0.02541	–
27010 kPa	0.02581	–
28009 kPa	0.0262	–
29013 kPa	0.02657	–
30010 kPa	0.02695	–
31009 kPa	0.02735	–
31995 kPa	0.02774	–
33004 kPa	0.02814	–
33949 kPa	0.02852	–
35027 kPa	0.02893	–
